Source: patent US6335038B1, “Composition for the prevention and/or treatment of osteoporosis and alterations due to menopause syndrome” (Sigma-Tau Healthscience S.p.A., priority 1998, dated 2002)

Columns and labels:
[1] = Toxicological tests, single-dose administration, mice; details: single dose: carnitine mixture 600 mg/kg, propionyl L-carnitine 600 mg/kg, soy extract (5% isoflavones) 5 g/kg, genistein 15 mg/kg
[2] = tested on: prostacyclin synthesis in rat peritoneal macrophages; test: Prostacyclin synthesis tests (PGI2 release by peritoneal macrophages from treated rats); type: in vivo; details: for effect on PGI2 synthesis in macrophages (in words): rats treated seven days, versus controls; for Macrophage PGI2 release values compared with controls: rats treated with diet for seven days (carnitine mixture 400 mg/kg, propionyl L-carnitine 400 mg/kg, soy extract 8 g/kg, genistein 40 mg/kg), carrageenin i.p. day 1, controls 0.25 ± 0.03
Method: The method used in these tests was the one described by G. R. Elliot in Brit. J. Nutrition, 64, 497, 1990, measuring the release of prostaglandins by peritoneal macrophages isolated from a batch of rats that were administered either the carnitine mixture, or the soy extract, or propionyl L-carnitine, or genistein, or various combinations of these products with their diet for seven days consecutively. The doses given were 400 mg/kg of carnitine mixture, or 400 mg/kg of propionyl L-carnitine, or 8 g/kg of soy extract, or 40 mg/kg of genistein, or the same doses of the various products combined. On day 1 of treatment, all the animals were treated intraperitoneally with 2 cm^3 of solution containing 2 mg of carrageenin. After the last day of treatment, peritoneal macrophages were isolated from the controls and treated rats so as to obtain a […] cell suspension.
One cm^3 of the macrophage preparation thus prepared was incubated for a period of two hours in order to evaluate the basal release or release after 30 minutes after being placed in contact with an ionophore such as […]. The cells were centrifuged and the supernatant analysed for its PGI2 content according to the radioimmunological assay method described by Zijstra et al. (Zijstra, F. J., Vincent, J. E., J. Chromatography, 311, 39, 1984).

[3] = tested on: serum osteocalcin; test: Evaluation of changes in serum osteocalcin concentration; type: in vivo, mice; details: for Osteocalcin, serum concentration: mice aged at least 7 months, daily with diet; for effect on serum osteocalcin concentrations (in words): mice, versus control animals
Method: There is a close correlation between changes in plasma levels of osteocalcin and bone tissue osteoblast activity, and a reduction in osteocalcin plasma levels is an indicator of […] osteoblast activity which appears to underlie osteoporosis in elderly subjects or in the postmenopausal period in women. These tests were performed on a batch of mice aged at least 7 months, divided into various groups of 10 mice each.
The treatment was administered daily for thirty days or sixty days consecutively.

[4] = tested on: MC3T3 osteoblast-like cells; test: Osteoblastic cell growth tests; type: cell-based, mouse; details: 72-hour incubation; 0.05 mM carnitine, 0.005 mM isoflavones or genistein; versus controls
Method: In view of the important role played by osteoblasts in regulating growth and in bone remodelling, a series of tests was conducted to evaluate whether the presence of carnitines or isoflavonoids and genistein could influence the growth of osteoblastic cells in vitro.

[5] = Toxicological tests, single-dose administration, rats; details: single dose: carnitine mixture 600 mg/kg, propionyl L-carnitine 600 mg/kg, soy extract (5% isoflavones) 5 g/kg, genistein 15 mg/kg
[6] = duration of treatment 30 days, controls 120.4 ± 8.6
[7] = duration of treatment 60 days, controls 90.5 ± 7.9

SMILES | mortality or evident signs of toxicity after single dose [1] | effect on PGI2 synthesis in macrophages (in words) [2] | Macrophage PGI2 release values compared with controls [2] [ng/2 × 10^−6 cells] | Osteocalcin, serum concentration [3, 6] [ng/mL] | Osteocalcin, serum concentration [3, 7] [ng/mL] | effect on serum osteocalcin concentrations (in words) [3] | effect on growth of osteoblastic cells (in words) [4] | mortality or evident signs of toxicity after single dose [5]
O=c1c(-c2ccc(O)cc2)coc2cc(O)cc(O)c12 [Genistein, 4′,5,7-trihydroxyisoflavone] | without any mortality or evident signs of toxicity | only modest | 0.39 ± 0.27 | 135.9 ± 10.2 | 100.1 ± 10.2 | capable of increasing the serum osteocalcin concentrations | neither the isoflavones nor genistein appear to influence the normal growth rate of the cells | without any mortality or evident signs of toxicity
CCC(=O)O[C@H](CC(=O)[O-])C[N+](C)(C)C [Propionyl L-carnitine, propionyl L-carnitine] | without any mortality or evident signs of toxicity | increase in PGI2 synthesis | 3.0 ± 0.22 | 130.7 ± 10.1 | 98.5 ± 8.1 | capable of increasing the serum osteocalcin concentrations | modest effect on the growth of cells | without any mortality or evident signs of toxicity
